Patent US11161856B2 (H. Lundbeck A/S, priority 2017, dated 2021)

Columns and labels:
MGLL = molecular target: T1, MGLL (Mus musculus, UniProt O35678); assay: In vitro competitive activity-based protein profiling, mouse brain proteome (MGLL); type: biochemical; conditions: concentration not given (μM)
T1 construct: Brain; from tissue; host or cells: mouse brain proteome
T1 sequence (O35678 1-303): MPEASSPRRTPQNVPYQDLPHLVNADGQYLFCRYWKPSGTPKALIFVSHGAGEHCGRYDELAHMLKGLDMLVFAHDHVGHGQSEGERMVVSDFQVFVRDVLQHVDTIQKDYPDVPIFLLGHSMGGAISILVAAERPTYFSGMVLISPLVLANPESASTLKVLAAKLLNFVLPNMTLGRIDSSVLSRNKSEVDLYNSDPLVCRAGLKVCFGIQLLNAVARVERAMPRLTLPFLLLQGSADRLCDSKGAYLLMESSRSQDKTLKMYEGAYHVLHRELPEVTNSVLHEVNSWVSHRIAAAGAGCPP

ABHD6 = molecular target: T2, ABHD6 (Mus musculus, UniProt Q8R2Y0); assay: In vitro competitive activity-based protein profiling, mouse brain proteome (ABHD6); type: biochemical; conditions: mouse brain proteome; concentration not given (μM)
T2 construct: Brain; from tissue; host or cells: mouse brain proteome
T2 sequence (Q8R2Y0 1-336): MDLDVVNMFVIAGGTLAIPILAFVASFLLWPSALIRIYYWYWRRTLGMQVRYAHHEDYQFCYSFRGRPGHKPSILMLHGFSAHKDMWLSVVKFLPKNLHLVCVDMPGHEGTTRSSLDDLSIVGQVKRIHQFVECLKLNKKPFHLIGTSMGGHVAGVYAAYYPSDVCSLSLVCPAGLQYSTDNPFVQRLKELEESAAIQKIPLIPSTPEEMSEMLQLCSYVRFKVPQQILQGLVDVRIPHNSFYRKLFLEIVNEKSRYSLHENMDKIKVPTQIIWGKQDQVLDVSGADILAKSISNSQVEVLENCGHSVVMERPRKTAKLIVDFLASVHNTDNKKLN
Procedure: [The source words this procedure for another target and reports this target under the same test.] In Vitro Competitive Activity-Based Protein Profiling.
Proteomes (human prefrontal cortex or cell membrane fractions) (50 μL, 1.0 mg/mL total protein concentration) were preincubated with varying concentrations of inhibitors at 37° C. After 30 min, FP-Rh or HT-01 (1.0 μL, 50 μM in DMSO) was added and the mixture was incubated for another 30 min at room temperature. Reactions were quenched with SDS loading buffer (15 μL-4×) and run on SDS-PAGE.

O=C(O)C1CCN(c2cc(C(F)(F)F)ccc2CN2CCC3(CC2)CCN(C(=O)OC(C(F)(F)F)C(F)(F)F)C3)CC1 [Example 195, l-(2-((2-(((l,1,1,3,3,3-Hexafluoropropan-2-yl)oxy)carbonyl)-2,8-diazaspino[4.5]decan-8-yl)melhyl)-5-(trifluoromethyl)phenyl)piperidine-4-carboxylic acid]
% Inh MGLL Brain (Mouse, μM) (MGLL): ### (### is ≥75%)
% Inh ABHD6 Brain (Mouse, μM) (ABHD6): # (# is ≤25%)

CS(=O)(=O)N1CC2(CCN(c3cc(Cl)ccc3CN3CCN(C(=O)OC(C(F)(F)F)C(F)(F)F)CC3)CC2)C1 [Example 212, 1,1,1,3,3,3-Hexafluoropropan-2-yl 4-(4-chloro-2-(2-(methylsulfonyl)-2,7-diazaspiro[3.5]nonan-7-yl)benzyl)piperazine-1-carboxylate]
% Inh MGLL Brain (Mouse, μM) (MGLL): ### (### is ≥75%)
% Inh ABHD6 Brain (Mouse, μM) (ABHD6): ## (## is between 25 and 75%)

O=C(OC(C(F)(F)F)C(F)(F)F)N1CC2(CCN(Cc3ccc(C(F)(F)F)cc3)CC2)C1 [Example 56, 1,1,1,3,3,3-Hexafluoropropan-2-yl 7-(4-(trifluoromethyl)benzyl)-2,7-diazaspiro[3.5]nonane-2-carboxylate]
% Inh MGLL Brain (Mouse, μM) (MGLL): ## (## is between 25 and 75%)
% Inh ABHD6 Brain (Mouse, μM) (ABHD6): ### (### is ≥75%)

O=C(OC(C(F)(F)F)C(F)(F)F)N1CCC2(CCN(Cc3ccc(Cl)cc3N3CCOCC3)CC2)C1 [Example 181, 1,1,1,3,3,3-Hexafluoropropan-2-yl 8-(4-chloro-2-morpholinobenzyl)-2,8-diazaspiro[4.5]decane-2-carboxylate]
% Inh MGLL Brain (Mouse, μM) (MGLL): ### (### is ≥75%)
% Inh ABHD6 Brain (Mouse, μM) (ABHD6): # (# is ≤25%)

O=C(OC(C(F)(F)F)C(F)(F)F)N1CCC2(CC1)CN(Cc1ccc(N3CCOCC3)cc1)C2 [Example 81, 1,1,1,3,3,3-Hexafluoropropan-2-yl 2-(4-morpholinobenzyl)-2,7-diazaspiro[3.5]nonane-7-carboxylate]
% Inh MGLL Brain (Mouse, μM) (MGLL): ### (### is ≥75%)
% Inh ABHD6 Brain (Mouse, μM) (ABHD6): ### (### is ≥75%)

O=C(OC(C(F)(F)F)C(F)(F)F)N1CC2(CCN(Cc3ccc(C(F)(F)F)cc3N3CCOCC3)CC2)C1 [Example 40, 1,1,1,3,3,3-Hexafluoropropan-2-yl 7-(2-morpholino-4-(triiluoromethyl)benzyl)-2,7-diazaspiro[3.5]nonane-2-carboxylate]
% Inh MGLL Brain (Mouse, μM) (MGLL): ### (### is ≥75%)
% Inh ABHD6 Brain (Mouse, μM) (ABHD6): ### (### is ≥75%)

Cc1ccccc1CN1CC2(CCN(C(=O)OC(C(F)(F)F)C(F)(F)F)CC2)C1 [Example 91, 1,1,1,3,3,3-Hexafluoropropan-2-yl 2-(2-methylbenzyl)-2,7-diazaspiro[3.5]nonane-7-carboxylate]
% Inh MGLL Brain (Mouse, μM) (MGLL): ### (### is ≥75%)
% Inh ABHD6 Brain (Mouse, μM) (ABHD6): ### (### is ≥75%)

O=C(OC(C(F)(F)F)C(F)(F)F)N1CCC2(CC1)CN(Cc1ccc(C(F)(F)F)cc1N1CCCCC1)C2 [Example 35]
% Inh MGLL Brain (Mouse, μM) (MGLL): ### (### is ≥75%)
% Inh ABHD6 Brain (Mouse, μM) (ABHD6): ## (## is between 25 and 75%)

O=C(OC(C(F)(F)F)C(F)(F)F)N1CCC2(CC1)CN(Cc1ccc(Cl)cc1N1CCCC1)C2 [Example 34]
% Inh MGLL Brain (Mouse, μM) (MGLL): ### (### is ≥75%)
% Inh ABHD6 Brain (Mouse, μM) (ABHD6): ### (### is ≥75%)

CC(=O)N1CCC2(CC1)CN(c1cc(Cl)ccc1CN1CCN(C(=O)OC(C(F)(F)F)C(F)(F)F)CC1)C2 [Example 198, 1.1.1,3,3,3-Hexafluoropropan-2-yl 4-(2-(7-acetyl-2,7-diazaspiro[3.5]nonan-2-yl)-4-chlorobenzyl)piperazine-1-carboxylate]
% Inh MGLL Brain (Mouse, μM) (MGLL): ### (### is ≥75%)
% Inh ABHD6 Brain (Mouse, μM) (ABHD6): # (# is ≤25%)

O=C(OC(C(F)(F)F)C(F)(F)F)N1CCC2(CC1)CN(Cc1cccc(N3CCOCC3)c1)C2 [Example 90, 1,1,1,3,3,3-Hexafluoropropan-2-yl 2-(3-morpholinobenzyl)-2,7-diazaspiro[3,5]nonane-7-carboxylate]
% Inh MGLL Brain (Mouse, μM) (MGLL): ### (### is ≥75%)
% Inh ABHD6 Brain (Mouse, μM) (ABHD6): ### (### is ≥75%)

O=C(O)C1CCN(c2ccc(CN3CC4(CCN(C(=O)OC(C(F)(F)F)C(F)(F)F)CC4)C3)cc2)CC1 [Example 74, 1-(4-((7-(((1,1,1,3,3,3-Hexafluoropropan-2-yl)oxy)carbonyl)-2,7-diazaspiro[3.5]nonan-2-yl)methyl)phenyl)piperidine-4-carboxylic acid]
% Inh MGLL Brain (Mouse, μM) (MGLL): # (# is ≤25%)
% Inh ABHD6 Brain (Mouse, μM) (ABHD6): ### (### is ≥75%)

O=C(OC(C(F)(F)F)C(F)(F)F)N1CCC2(CC1)CN(Cc1c(Cl)cccc1N1CCC3(CCOCC3)C1)C2 [Example 48, 1,1,1,3,3,3-Hexafluoropropan-2-yl 2-(2-chloro-6-(8-oxa-2-azaspiro[4.5]decan-2-yl)benzyl)-2,7-diazaspiro[3.5]nonane-7-carboxylate]
% Inh MGLL Brain (Mouse, μM) (MGLL): ### (### is ≥75%)
% Inh ABHD6 Brain (Mouse, μM) (ABHD6): ### (### is ≥75%)

O=C(OC(C(F)(F)F)C(F)(F)F)N1CC2(CCN(Cc3ccc(N4CCOCC4)cc3Cl)CC2)C1 [Example 70, 1,1,1,3,3,3-Hexafluoropropan-2-yl 7-(2-chloro-4-morpholinobenzyl)-2,7-diazaspiro[3.5]nonane-2-carboxylate]
% Inh MGLL Brain (Mouse, μM) (MGLL): ### (### is ≥75%)
% Inh ABHD6 Brain (Mouse, μM) (ABHD6): ### (### is ≥75%)

CC(=O)N1CC2(CCN(c3ccccc3CN3CCCCC34CN(C(=O)OC(C(F)(F)F)C(F)(F)F)C4)C2)C1 [Example 231, 1,1,1,3,3,3-Hexafluoropropan-2-yl 5-(2-(2-acetyl-2,6-diazaspiro[3.4]octan-6-yl)benzyl)-2,5-diazaspiro[3.5]nonane-2-carboxylate]
% Inh MGLL Brain (Mouse, μM) (MGLL): ## (## is between 25 and 75%)
% Inh ABHD6 Brain (Mouse, μM) (ABHD6): ## (## is between 25 and 75%)

CC(=O)N1CC2(CCN(c3ccccc3CN3CCN(C(=O)OC(C(F)(F)F)C(F)(F)F)CC3)C2)C1 [Example 168, 1,1,1,3,3,3-Hexafluoropropan-2-yl 4-(2-(2-acetyl-2,6-diazaspiro[3.4]octan-6-yl)benzyl)piperazine-1-carboxylate]
% Inh MGLL Brain (Mouse, μM) (MGLL): ### (### is ≥75%)
% Inh ABHD6 Brain (Mouse, μM) (ABHD6): # (# is ≤25%)

CCN1CCC2(CCN(c3cc(C(F)(F)F)ccc3CN3CCN(C(=O)OC(C(F)(F)F)C(F)(F)F)CC3)CC2)C1 [Example 183, 1,1,1,3,3,3-Hexafluoropropan-2-yl 4-(2-(2-ethyl-2,8-diazaspiro[4.5]decan-8-yl)-4-(trifluoromethyl)benzyl) piperazine-1-carboxylate]
% Inh MGLL Brain (Mouse, μM) (MGLL): ### (### is ≥75%)
% Inh ABHD6 Brain (Mouse, μM) (ABHD6): # (# is ≤25%)

O=C(OC(C(F)(F)F)C(F)(F)F)N1CCC2(CC1)CN(Cc1ccccc1N1CCCC1)C2 [Example 88, 1,1,1,3,3,3-Hexafluoropropan-2-yl 2-(2-(pyrrolidin-1-yl)benzyl)-2,7-diazaspiro[3.5]nonane-7-carboxylate]
% Inh MGLL Brain (Mouse, μM) (MGLL): ### (### is ≥75%)
% Inh ABHD6 Brain (Mouse, μM) (ABHD6): ### (### is ≥75%)

O=C(O)C1CCN(c2cc(Cl)ccc2CN2CCC3(CC2)CCN(C(=O)OC(C(F)(F)F)C(F)(F)F)C3)CC1 [Example 194, l-(5-Chloro-2-((2-(((1.1,1,3,3,3-hexafluoropropan-2-yl)oxy)carbonyl)-2,8-diazaspiro[4.5]decan-8-yl)methyl)phenyI)piperidine-4-carboxylic acid]
% Inh MGLL Brain (Mouse, μM) (MGLL): ### (### is ≥75%)
% Inh ABHD6 Brain (Mouse, μM) (ABHD6): # (# is ≤25%)

O=C(OC(C(F)(F)F)C(F)(F)F)N1CCC2(CC1)CN(Cc1ccccc1N1CCOCC1)C2 [Example 96, 1,1,1,3,3,3-Hexafluoropropan-2-yl 2-(2-morpholinobenzyl)-2,7-diazaspiro[3,5]nonane-7-carboxylate]
% Inh MGLL Brain (Mouse, μM) (MGLL): ### (### is ≥75%)
% Inh ABHD6 Brain (Mouse, μM) (ABHD6): ### (### is ≥75%)

O=C(OC(C(F)(F)F)C(F)(F)F)N1CCC2(CCN(Cc3ccc(C(F)(F)F)cc3N3CC4CCC(C3)O4)CC2)C1 [Example 190, 1,1,1,3,3,3-Hexafluoropropan-2-yl 8-(2-(8-oxa-3-azabicyclo[3.2.1]octan-3-yl)-4-(trifluoromethyl)benzyl)-2,8-diazaspiro[4.5]decane-2-carboxylate]
% Inh MGLL Brain (Mouse, μM) (MGLL): ### (### is ≥75%)
% Inh ABHD6 Brain (Mouse, μM) (ABHD6): # (# is ≤25%)
